Results reported in patent publication US20160151403A1, “SMALL MOLECULE MODULATORS OF P53 FAMILY SIGNALING” (The Trustees of the University of Pennsylvania, priority 2006, published 2016).
“Also recorded” adds a separate entry of the source.

Columns and labels:
[1] = system: p53 protein expression in HCT116 cells; experiment: Western blot of p53 protein in parental HCT116 cells; type: cell-based, human; conditions: FIG. 2A
Description: (§1) Cells were collected and protein concentration was quantified by the Bio-Rad protein assay prior to SDS-PAGE. Proteins were transferred to a PVDF membrane (Immobilon-P, Millipore Corporation, Bedford, Mass.) by a semi-dry transfer apparatus (Bio-Rad Laboratories, Hercules, Calif.). The membranes with transferred proteins were blotted with 10% W/V non-fat dry milk and then incubated with the primary antibody and subsequently secondary antibodies, which were labelled by horseradish peroxidase, or infrared dyes (IR). Signals were visualized by either ECL (Amersham Pharmacia Biotech, England, UK) and exposed to an X-ray film, or scanned by the Odyssey Infared Imaging System (LI-COR Biosciences, Lincoln, Nebr.). Anti-p53, DO-1, was from Santa Cruz biotechnology, Inc. (Santa Cruz, Calif.), anti-p73 (AB-1) and anti-p21 (AB-1) were obtained from Calbiochem (San Diego, Calif.). Anti-ser20 of p53 Cell were obtained from Signaling Technology (Danvers, Mass.) and anti-DR5 antibody was obtained from Cayman Chemical (Ann Arbor, Mich.).
(§2) The chemical library screening was directed at restoring “p53 responses” in p53-deficient cells. The small molecules identified by the cell-based screening procedure appeared to be able to restore p53 responses in p53-deficient colon tumors and to eliminate viable cells. Their function was further tested on wild-type p53-expressing and p53-knockout HCT116 colon adenocarcinoma cell lines. A number of candidate modulators of signaling by the p53 family appeared to induce expression of p53 target genes such as p21 or DR5(13) either with or without stabilizing p53 protein in HCT116 cells (FIG. 2A).

[2] = system: DR5 and p21 in HCT116/p53(+/+) cells; experiment: Western blot of p53 target genes DR5 and p21 in HCT116/p53(+/+) cells; type: cell-based, human; conditions: for expression of p53 targets DR5 and p21 proteins: parental HCT116 (p53+/+) cells, FIG. 2A
Description: (§3) FIGS. 2A-2B show protein levels of p53 target genes p21 and DR5 were induced by selected compounds in HCT/p53(+/+) cells (A) or HCT/p53(−/−) cells (B). In A, doses of compounds (μM) are listed above each lane. Cells treated with compounds were harvested and lysed for SDS-PAGE and immunoblotted with p21 or DR5 antibodies. Ran was used as a protein loading control. Doses of compounds in B were as follows: 2 μM for #15, 12 μM for #1 and #23, 20 μM for #20 and #32, 100 μM for #33, 200 μM for #5, #8, #12, #16, #17, and #22, and 400 μM for #3. The dose for adriamycin was 0.2 μg/ml. Cells were incubated for 16 hours at 37° C. with the various drugs prior to cell harvest;
as §1, §2

[3] = system: DR5 and p21 in HCT116/p53(−/−) cells; experiment: Western blot of p53 target genes DR5 and p21 in HCT116/p53(-/-) cells; type: cell-based, human; conditions: for DR5 and p21 expression (p53 target genes): p53-null HCT116 cells, 16 hours, doses per compound in FIG. 2B
Description: as §3, §1
A number of selected compounds was further tested on HCT116/p53^−/− cells to verify the possibility of induction of p53 target gene expression in the absence of p53. […] The importance of this observation is in establishing that it is possible to identify small molecules with the potential to induce p53 target gene expression in p53-deficient cells.

[4] = system: p73 in HCT116/p53(−/−) cells; experiment: Western blot of p73 protein in HCT116/p53(-/-) cells; type: cell-based, human; conditions: FIG. 3F
Description: (§4) FIGS. 3A-3F show: Structures (A) of isolated compounds and summary of their effects on the p53 family and transcriptional targets (B). Cell cycle profiles of HCT/p53(+/+) and HCT/p53(−/−) in response to treatment by selected compounds (C-E). The dose of #17 was 200 μM and for #23 it was 10 μM. F, p73 protein levels were elevated in HCT116/p53(−/−) cells in response to treatment by selected compounds at various concentrations as indicated;
as §1
The questioned whether the p53 family member p73 is involved in the p53-responsive transcriptional activity induced by the compounds identified was then tested. p63, the other p53 family member, was not tested, because the TA form of p63 is rarely expressed in malignant and normal tissues except for germ cells of the ovary and testis.

[5] = system: HCT116/p53(−/−)/PG13 cells; experiment: p53 transcriptional activity, PG13 reporter, HCT116/p53(-/-)/PG13 cells; type: cell-based, human; conditions: p53-null HCT116, 16 h, bioluminescence
Description: (§5) Cells were treated by the indicated compounds at progressive 1:2 serial dilutions for 16 h, and the luciferase activities were detected by bioluminescence imaging. Fold induction was calculated by comparing to the nontreated cells;

[6] = Toxicity in xenograft-bearing mice; type: in vivo; conditions: at higher doses (above MTD)
Description: (§6) Compounds #1, #14, #17, and #23 were tested in colon-tumor xenograft-bearing mice in order to evaluate their toxicities and potential anti-tumor effects (FIG. 4). […] The initial doses were chosen below maximal tolerated doses based on the NCI DTP toxicology databases for chemical compound testing in vivo so that mice would survive drug administration and allow subsequent evaluation of anti-tumor effects. p53-null HCT116 xenografts were first tested to document anti-tumor effects in p53-deficient tumors and an experiment to simulate therapy of established tumors was designed. A total of 2×10^6 p53-null HCT116 cells were implanted on opposite flanks subcutaneously in each of 6 nude mice in each group. When tumor masses grew to about 3-5 mm in diameter, drugs were administered intra-peritoneally (#1: 100 mg/kg; #14: 50 mg/kg; #23: 10 mg/kg), and on the next day additional groups received intravenous TRAIL (15) (100 μg/mice via the tail vein). Tumor weights were determined at 7 days later. […] Nonetheless in the future it may be possible to modify the structure of #17 or identify doses where synergistic interactions with TRAIL may be observed.

HCT116/p53^−/− cells = experiment: Flow cytometry cell cycle profile, HCT116/p53(-/-); type: cell-based, human
Description: as §4
(§7) Adherent cells in a 6-well plate were trypsinized and collected in 15 ml centrifuge tubes to which were added the originally floating cells. The collected cells were ethanol-fixed and stained with propidium iodide (Sigma, St. Louis, Mo.). The DNA content of the stained cells was then measured using an Epics Elite flow cytometer (Beckman-Coulter, Fullerton, Calif.).
(§8) The ability of selected compounds from the chemical library screen to induce apoptosis of human colon tumor cells and the dependence of their effects on endogenous p53 status was further evaluated.

[7] = system: HCT116/p53(+/+)/PG-13 cells; experiment: p53 transcriptional activity, PG13 reporter, HCT116/p53(+/+)/PG-13 cells; type: cell-based, human; conditions: 16 h, bioluminescence
Description: as §5

HCT116/p53^+/+ cells = experiment: Flow cytometry cell cycle profile, HCT116/p53(+/+); type: cell-based, human; conditions: #17 200 μM, #23 10 μM
Description: as §4, §7, §8

γH2AX = γH2AX test (DNA damage signaling); type: cell-based; conditions: after treatment
[8] = system: HCT116/p53(−/−) xenografts; experiment: In vivo anti-tumor assay, HCT116/p53(-/-) xenografts in Balb/c nude mice; conditions: doses just below the MTD
Description: Balb/c nude mice were inoculated subcutaneously with 2 million HCT116/p53(−/−) cells in Matrigel on each flank. 6 mice were used in each group, in each of the two experiments. When the tumor mass reached about 3-5 mm, mice were treated with the compounds alone or following a single dose of TRAIL at 100 μg/mouse in experiment 1. At 7 days after treatment, mice were sacrificed and the tumor masses were weighted. The doses used were 100 mg/kg for #1, 50 mg/kg for #14, and 10 mg/kg for #23;
Balb/c nude mice (Charles River Laboratories, Wilmington, Mass.) were inoculated subcutaneously with 2 million HCT116/p53(−/−) cells in an equal volume of Matrigel. When tumor masses reached about 3-5 mm in diameter, mice were treated with the compounds alone by intraperitoneal injection or following a single intravenous dose of TRAIL at 100 μg/mouse. At 7 days after treatment, mice were sacrificed and the tumor masses were weighed. DLD1/PG13 cells were inoculated subcutaneously with 5 million cells. At 24 hours later mice were treated with selected compounds, and subsequently bioluminescence imaging was carried out after 16 hours as previously described [Wang, W. & El-Deiry, W. S. (2003) Cancer Biol Ther 2, 196-202].
as §6

**Q.** For Cc1ccc(CCCC(=O)O)cc1C [#3], which p53 protein expression [1] is on record?
**A.** slight or no significant effect

**Q.** And the “expression of p53 targets DR5 and p21 proteins” value [2]?
**A.** increase p53 target gene expression

**Q.** Which “DR5 and p21 expression (p53 target genes)” value (“DR5 and p21 expression” below) [3] does the source give for O=c1[nH]c(SCc2ccccc2[N+](=O)[O-])nc2nc[nH]c12 [#22] here?
**A.** increase DR5 and p21 expression

**Q.** Which p53 protein expression [1] does the source give for COC1=C(C)C(=O)c2c(c(COC(N)=O)c3n2CC2C3N2C)C1=O (stereo not shown) [#11] here?
**A.** increased p53 expression

**Q.** What about the “expression of p53 targets DR5 and p21 proteins” value [2] of the same compound?
**A.** more modest

**Q.** With O=C(O)CCC(=O)c1ccc2sc3ccccc3c2c1 [#8] as the compound, how does the p73 protein expression [4] read?
**A.** induce p73 protein expression

**Q.** And the “DR5 and p21 expression” value [3]?
**A.** increase DR5 and p21 expression

**Q.** What does the source list for O=C(O)/C=C\C(=O)Nc1ccc2c(c1)-c1ccccc1C2 [#5]?
**A.** p53 protein expression [1]: slight or no significant effect; expression of p53 targets DR5 and p21 proteins [2]: increase p53 target gene expression

**Q.** Which results are given for CC(C)=CCNc1ncnc2c1c(C#N)cn2C1OC(CO)C(O)C1O (stereo not shown) [#16]?
**A.** p73 protein expression [4]: induce p73 protein expression; p53 protein expression [1]: slight or no significant effect; expression of p53 targets DR5 and p21 proteins [2]: increase p53 target gene expression

**Q.** For C[C@]12CC[C@H](O)C[C@H]1CC[C@@H]1[C@@H]2CC[C@]2(C)[C@@H](C3=CC(=O)OC3)[C@@H](O)C[C@]12O [#32], which “DR5 and p21 expression” value [3] is on record?
**A.** increase DR5 and p21 expression

**Q.** With CC[C@@]1(O)C(=O)OCc2c1cc1n(c2=O)Cc2cc3c(NC(=O)CN)cccc3nc2-1.Cl [#33] as the compound, how does the p53 protein expression [1] read?
**A.** increase p53 expression; also recorded: significantly increased p53 protein levels

**Q.** And the “expression of p53 targets DR5 and p21 proteins” value [2]?
**A.** increased expression of DR5 and p21 proteins

**Q.** For Cc1c2ccccc2c(CSC(=N)N)c2ccccc12.Cl [#15], which p53 protein expression [1] is on record?
**A.** increased p53 expression; also recorded: significantly increased p53 protein levels

**Q.** What about the “expression of p53 targets DR5 and p21 proteins” value [2] of the same compound?
**A.** more modest

**Q.** With COc1cccc2c1C(=O)c1c(O)c3c(c(O)c1C2=O)C[C@@](O)(C(=O)CO)C[C@@H]3O[C@H]1C[C@H](N)[C@H](O)[C@H](C)O1 [adriamycin, doxorubicin, reference compound] as the compound, how does the p73 protein expression [4] read?
**A.** only increased p73 slightly

**Q.** And the DR5 expression ([3]; HCT116/p53^−/− cells)?
**A.** no obvious effect

**Q.** What about the p21 expression ([3]; HCT116/p53^−/− cells) of the same compound?
**A.** little effect

**Q.** With CN(C)CCCn1c2ccccc2c2cnccc21 [#17] as the compound, how does the p73 protein expression [4] read?
**A.** did not increase p73 expression

**Q.** And the p53 protein expression [1]?
**A.** slight or no significant effect; also recorded: modestly induced p53 levels

**Q.** What about the “p53 transcriptional activity (reporter assay response)” value [5] of the same compound?
**A.** highest; also recorded: stronger responses in the reporter assays

**Q.** And the toxicity to mice [6]?
**A.** toxic to mice

**Q.** What about the “sub-G1 peak (apoptosis)” value (HCT116/p53^−/− cells; HCT116/p53^−/−, #17 200 μM, #23 10 μM) of the same compound?
**A.** induced a sub-G1 peak characteristic of apoptosis

**Q.** What about the “S-phase population on apoptosis induction” value (HCT116/p53^−/− cells; p53-null HCT116 cells, compared with wild-type p53-expressing HCT116) of the same compound?
**A.** without suppressing the S-phase population

**Q.** What about the p53 transcriptional activity [7] of the same compound?
**A.** highest

**Q.** And the DR5 expression ([3]; HCT116/p53^−/− cells)?
**A.** highest

**Q.** And the “DR5 and p21 expression” value [3]?
**A.** increasing expression of the p53 target genes DR5 and p21; also recorded: strongly induce p53 target gene expression

**Q.** And the DR5 levels ([2]; HCT116/p53^+/+ cells)?
**A.** highest

**Q.** What about the “expression of p53 targets DR5 and p21 proteins” value [2] of the same compound?
**A.** increase p53 target gene expression

**Q.** What about the “sub-G1 peak (apoptosis)” value (HCT116/p53^+/+ cells) of the same compound?
**A.** induced a sub-G1 peak characteristic of apoptosis

**Q.** And the γH2AX (γH2AX)?
**A.** not

**Q.** What about the “anti-tumor effect on established xenograft” value [8] of the same compound?
**A.** no apparent in vivo anti-tumor effect

**Q.** For O=C(O)c1ccccc1-c1ccccc1C(=O)Nc1ccc2c(c1)[nH]c(=O)c1ccccc12 [#12], which p73 protein expression [4] is on record?
**A.** induce p73 protein expression

**Q.** And the p53 protein expression [1]?
**A.** slight or no significant effect

**Q.** What about the “expression of p53 targets DR5 and p21 proteins” value [2] of the same compound?
**A.** increase p53 target gene expression
